US20210032257A1, “(E)-1-(4-(DIMETHYLAMINO)BUT-2-ENOYL)PYRROLIDIN-3-YL 4-((3-ISOPROPYL-5-METHYLPYRAZOLO[1,5-A]PYRIMIDIN-7-YL)AMINO)PIPERIDINE-1-CARBOXYLATE FOR INHIBITING CDK7” (Eli Lilly and Company, priority 2017, published 2021)

What was measured:
Assay in all cases: Biomarker study proliferation (CellTiter-Glo)
Format in all cases: cell-based
[1] = test system: A549
Procedure: (§1) Cancer cell lines are profiled to evaluate the anti-proliferative activity of a test compound in-vitro. Mutation, copy number and gene expression information of ARID1A, KMT2C, KMT2D and/or RB1 genes across cancer cell lines is obtained from COSMIC database (cancer.sanger.ac.uk) and cBioportal (http://www.cbioportal.org/). Cells are cultured in growth medium and plated into a 96-well plate in 100 μL/well growth medium at 5000 cells/well then incubated at 37° C., 5% CO2 overnight. Cells are cultured using supplier recommended media and conditions well known in the art, for example with RPMI 1640 with or without HEPES & L-Glutamine (Thermo SH30255.01) and 1 mM Sodium Pyruvate, and 10% FBS(Gibco cat #10082). The 1000× intermediate dilution plate is prepared by making a 10 mM working solution of a test sample in DMSO and performing 1:3 dilutions in DMSO for 10 points. The 10× dosing plate is prepared by adding 2 μL from the 1000× intermediate dilution plate to 198 μL of OPTIMEM®+10% FBS and mixing well. The cell plate is then treated by adding 11 μL from the 10× dosing plate into the 100 μL/well cell plate for a 1× final concentration. Staurosporine is used as a maximum growth inhibition control at a final concentration of 5 μM. The cell plate is incubated for 7 days at 37° C., 5% CO2. Seven days after treatment, Cell Titer-Glo® (Promega cat #G7571) assay buffer and substrate are removed from −20° C. and allowed to equilibrate to RT. Assay buffer is added to the substrate and swirled gently to mix. The CELL TITER-GLO® reagent (100 μL/well) is added to the cell plate and incubated at RT for 15 minutes. After 15 minutes, luminescence is read using a plate reader. Data is analyzed in Excel and graphed in GraphPad Prism. Statistical analysis and p value is calculated using Mann-Whitney nonparameteric t tests using GraphPad Prism.
(§2) Anti-proliferative effects of a test compound are categorized as insensitive (IC50≥1 μM), cytostatic (IC50<1 μM and % inhibition <70%) or cytotoxic (IC50<1 μM and % inhibition ≥70%).

[2] = test system: COLO320
Procedure: as §1, §2

[3] = test system: EBC1
Procedure: as §1, §2

[4] = test system: HCC1806
Procedure: as §1, §2

[5] = test system: HCC44
Procedure: as §1, §2

[6] = test system: HLE
Procedure: as §1, §2

[7] = test system: KARPAS299
Procedure: as §1, §2

[8] = test system: LN229
Procedure: as §1, §2

[9] = test system: LNCAP
Procedure: as §1, §2

[10] = test system: M14
Procedure: as §1, §2

[11] = test system: MKN45
Procedure: as §1, §2

[12] = test system: NCIH1092
Procedure: as §1, §2

[13] = test system: NCIH1975
Procedure: as §1, §2

[14] = test system: NCIH524
Procedure: as §1, §2

[15] = test system: PANC1
Procedure: as §1, §2

[16] = test system: RKO
Procedure: as §1, §2

[17] = test system: SKOV3
Procedure: as §1, §2

[18] = test system: UACC812
Procedure: as §1, §2

[19] = Homo sapiens, 168 h, read-out: Anti-proliferation effect IC50

Q: Which “Anti-proliferation effect % Inh.” value ([1]; A549, LUNG, 7 days) does the source give for `Cc1cc(NC2CCN(C(=O)O[C@H]3CCN(C(=O)/C=C/CN(C)C)C3)CC2)n2ncc(C(C)C)c2n1` [Example 1, [(3S)-1-[(E)-4-(dimethylamino)but-2-enoyl]pyrrolidin-3-yl] 4-[(3-isopropyl-5-methyl-pyrazolo[1,5-a]pyrimidin-7-yl)amino]piperidine-1-carboxylate] here?
A: 64%

Q: What about the “Anti-proliferation effect Outcome” value ([1]; A549, LUNG, 7 days) of the same compound?
A: Cytostatic (cytostatic (IC50<1 μM and % inhibition <70%))

Q: And the IC50 ([1]; Homo sapiens, A549, 168 h, read-out: Anti-proliferation effect IC50)?
A: 139 nM

Q: And the “Anti-proliferation effect % Inh.” value ([2]; COLO320, INTESTINE, 7 days)?
A: 73%

Q: What about the “Anti-proliferation effect Outcome” value ([2]; COLO320, INTESTINE, 7 days) of the same compound?
A: Cytotoxic (cytotoxic (IC50<1 μM and % inhibition ≥70%))

Q: And the IC50 ([2]; Homo sapiens, COLO 320, 168 h, read-out: Anti-proliferation effect IC50)?
A: 189 nM

Q: What about the “Anti-proliferation effect % Inh.” value ([3]; EBC1, LUNG, 7 days) of the same compound?
A: 83%

Q: And the “Anti-proliferation effect Outcome” value ([3]; EBC1, LUNG, 7 days)?
A: Cytotoxic (cytotoxic (IC50<1 μM and % inhibition ≥70%))

Q: What about the IC50 ([3]; Homo sapiens, EBC-1, 168 h, read-out: Anti-proliferation effect IC50) of the same compound?
A: 47 nM

Q: And the “Anti-proliferation effect % Inh.” value ([4]; HCC1806, BREAST, 7 days)?
A: 99%

Q: What about the “Anti-proliferation effect Outcome” value ([4]; HCC1806, BREAST, 7 days) of the same compound?
A: Cytotoxic (cytotoxic (IC50<1 μM and % inhibition ≥70%))

Q: And the IC50 ([4]; Homo sapiens, HCC1806, 168 h, read-out: Anti-proliferation effect IC50)?
A: 14 nM

Q: And the “Anti-proliferation effect % Inh.” value ([5]; HCC44, LUNG, 7 days)?
A: 48%

Q: And the “Anti-proliferation effect Outcome” value ([5]; HCC44, LUNG, 7 days)?
A: Cytostatic (cytostatic (IC50<1 μM and % inhibition <70%))

Q: And the IC50 ([5]; Homo sapiens, HCC44, 168 h, read-out: Anti-proliferation effect IC50)?
A: 131 nM

Q: What about the IC50 [6, 19] of the same compound?
A: 30 nM

Q: What about the “Anti-proliferation effect % Inh.” value ([6]; LIVER, 7 days) of the same compound?
A: 77%

Q: What about the “Anti-proliferation effect Outcome” value ([6]; LIVER, 7 days) of the same compound?
A: Cytotoxic (cytotoxic (IC50<1 μM and % inhibition ≥70%))

Q: And the IC50 ([7]; Homo sapiens, KARPAS-299, 168 h, read-out: Anti-proliferation effect IC50)?
A: 69 nM

Q: What about the “Anti-proliferation effect % Inh.” value ([7]; KARPAS299, BLOOD, 7 days) of the same compound?
A: 78%

Q: What about the “Anti-proliferation effect Outcome” value ([7]; KARPAS299, BLOOD, 7 days) of the same compound?
A: Cytotoxic (cytotoxic (IC50<1 μM and % inhibition ≥70%))

Q: What about the IC50 ([8]; Homo sapiens, LN-229, 168 h, read-out: Anti-proliferation effect IC50) of the same compound?
A: 36 nM

Q: What about the “Anti-proliferation effect % Inh.” value ([8]; LN229, CNS, 7 days) of the same compound?
A: 63%

Q: What about the “Anti-proliferation effect Outcome” value ([8]; LN229, CNS, 7 days) of the same compound?
A: Cytostatic (cytostatic (IC50<1 μM and % inhibition <70%))

Q: What about the IC50 ([9]; Homo sapiens, LNCaP, 168 h, read-out: Anti-proliferation effect IC50) of the same compound?
A: 59 nM

Q: What about the “Anti-proliferation effect % Inh.” value ([9]; LNCAP, PROSTATE, 7 days) of the same compound?
A: 74%

Q: What about the “Anti-proliferation effect Outcome” value ([9]; LNCAP, PROSTATE, 7 days) of the same compound?
A: Cytotoxic (cytotoxic (IC50<1 μM and % inhibition ≥70%))

Q: What about the IC50 ([10]; Homo sapiens, M14, 168 h, read-out: Anti-proliferation effect IC50) of the same compound?
A: 32 nM

Q: And the “Anti-proliferation effect % Inh.” value ([10]; M14, SKIN, 7 days)?
A: 85%

Q: What about the “Anti-proliferation effect Outcome” value ([10]; M14, SKIN, 7 days) of the same compound?
A: Cytotoxic (cytotoxic (IC50<1 μM and % inhibition ≥70%))

Q: And the IC50 ([11]; Homo sapiens, MKN-45, 168 h, read-out: Anti-proliferation effect IC50)?
A: 56 nM

Q: What about the “Anti-proliferation effect % Inh.” value ([11]; MKN45, STOMACH, 7 days) of the same compound?
A: 79%

Q: And the “Anti-proliferation effect Outcome” value ([11]; MKN45, STOMACH, 7 days)?
A: Cytotoxic (cytotoxic (IC50<1 μM and % inhibition ≥70%))

Q: What about the IC50 ([12]; Homo sapiens, NCI-H1092, 168 h, read-out: Anti-proliferation effect IC50) of the same compound?
A: 683 nM

Q: And the “Anti-proliferation effect % Inh.” value ([12]; NCIH1092, LUNG, 7 days)?
A: 42%

Q: What about the “Anti-proliferation effect Outcome” value ([12]; NCIH1092, LUNG, 7 days) of the same compound?
A: Cytostatic (cytostatic (IC50<1 μM and % inhibition <70%))

Q: What about the IC50 ([13]; Homo sapiens, NCI-H1975, 168 h, read-out: Anti-proliferation effect IC50) of the same compound?
A: 21 nM

Q: And the “Anti-proliferation effect % Inh.” value ([13]; NCIH1975, LUNG, 7 days)?
A: 90%

Q: What about the “Anti-proliferation effect Outcome” value ([13]; NCIH1975, LUNG, 7 days) of the same compound?
A: Cytotoxic (cytotoxic (IC50<1 μM and % inhibition ≥70%))

Q: What about the IC50 ([14]; Homo sapiens, NCI-H524, 168 h, read-out: Anti-proliferation effect IC50) of the same compound?
A: 37 nM

Q: What about the “Anti-proliferation effect % Inh.” value ([14]; NCIH524, LUNG, 7 days) of the same compound?
A: 92%

Q: And the “Anti-proliferation effect Outcome” value ([14]; NCIH524, LUNG, 7 days)?
A: Cytotoxic (cytotoxic (IC50<1 μM and % inhibition ≥70%))

Q: And the IC50 ([15]; Homo sapiens, PANC-1, 168 h, read-out: Anti-proliferation effect IC50)?
A: 71 nM

Q: And the “Anti-proliferation effect % Inh.” value ([15]; PANC1, PANCREAS, 7 days)?
A: 47%

Q: What about the “Anti-proliferation effect Outcome” value ([15]; PANC1, PANCREAS, 7 days) of the same compound?
A: Cytostatic (cytostatic (IC50<1 μM and % inhibition <70%))

Q: And the IC50 [16, 19]?
A: 118 nM

Q: What about the “Anti-proliferation effect % Inh.” value ([16]; INTESTINE, 7 days) of the same compound?
A: 61%

Q: And the “Anti-proliferation effect Outcome” value ([16]; INTESTINE, 7 days)?
A: Cytostatic (cytostatic (IC50<1 μM and % inhibition <70%))

Q: What about the IC50 ([17]; Homo sapiens, SK-OV-3, 168 h, read-out: Anti-proliferation effect IC50) of the same compound?
A: > 10000 nM

Q: And the “Anti-proliferation effect % Inh.” value ([17]; SKOV3, OVARY, 7 days)?
A: 27%

Q: What about the “Anti-proliferation effect Outcome” value ([17]; SKOV3, OVARY, 7 days) of the same compound?
A: Insensitive (insensitive (IC50≥1 μM))

Q: What about the IC50 ([18]; Homo sapiens, UACC-812, 168 h, read-out: Anti-proliferation effect IC50) of the same compound?
A: 76 nM

Q: And the “Anti-proliferation effect % Inh.” value ([18]; UACC812, BREAST, 7 days)?
A: 58%

Q: And the “Anti-proliferation effect Outcome” value ([18]; UACC812, BREAST, 7 days)?
A: Cytostatic (cytostatic (IC50<1 μM and % inhibition <70%))
